The values below come from patent US11998553B2, “Certain (2S)-N-[(1S)-1-cyano-2-phenylethyl]-1,4-oxazepane-2-carboxamides for treating lupus nephritis” (Insmed Incorporated, priority 2018, dated 2024).

Molecules are shown by their SMILES.

The subject of the experiment is NZB/WF1 mice. The experiment is described as follows: Accelerated lupus nephritis model in mice (Ad-IFNα5 injection). The experiment is classed as in vivo. The method, then:
INS1007 as a potential treatment for LN was assessed. 10-11 week old female New Zealand Black/New Zealand White F1 (NZB/WF1) mice (Jackson Laboratory) were subjected to a single injection of an adenovirus expressing IFNα5 (Ad-IFNα5, BioXcell, cat #BE0241, clone AR1-5A3) to accelerate the clinical manifestations of LN. FIG. 1 provides a schematic overview of the study design.
The duration of the study was 8 weeks from Ad-IFNα5 injection.
Urine and blood collection was carried out at baseline (immediately after Ad-IFNα5 injection), and at weeks 2, 4, 6 and 8. Total protein (by chemstick), albumin (by ELISA) and creatinine (by a colorimetric assay kit) was measured in urine and blood urea nitrogen (BUN) was measured in plasma.
Animals were sacrificed at 8 weeks and the left kidney of each animal was used for histopathology analysis. Pathology scores are summed from individual scores of three aspects: glomerulonephritis, tubular protein and nephropathy and were scored by a Certified Veterinary Pathologist.
The right kidneys of each animal were used for FACS analysis. Right kidneys were digested and subjected to Percoll centrifugation, fixable-viability-dye and surface staining for the following markers: CD45, CD3, CD11b, F4/80, Ly6G and Ly6C. Results of FACS are provided at FIGS. 7-13.

On to `Cn1c(=O)oc2ccc(-c3ccc(C[C@@H](C#N)NC(=O)[C@@H]4CNCCCO4)cc3)cc21` [INS1007, (2S)—N-{(1S)-1-cyano-2-[4-(3-methyl-2-oxo-2,3-dihydro-1,3-benzoxazol-5-yl)phenyl]ethyl}-1,4-oxazepane-2-carboxamide], for which, where the note is “days post Ad-IFNα5 injection, INS1007 0.1, 1, 10 mg/kg PO twice daily, FIG. 5”, the “pseudo-survival (urine total protein less than 750 mg/dL)” value was “increased “pseudo-survival” (and decreased total protein concentration) in a dose dependent manner”. Further, under “left kidney histopathology at 8 weeks, vs vehicle, FIG. 6”, the “renal pathology score sum (glomerulonephritis, tubular protein, nephropathy)” value was “decreased renal pathology as compared to vehicle control”. In addition, where the note is “plasma BUN (mg/dL), 6 weeks after model induction, INS1007 0.1, 1, 10 mg/kg PO twice daily, FIG. 4”, the “blood urea nitrogen (BUN) levels” value was “decreased in animals treated with INS1007 in a dose dependent matter”. Also, the “T-lymphocyte percent of total kidney cells” value (right kidney FACS, CD45+, CD3+, week 8, FIG. 13) is given as “significantly decreased”. Besides, the “Ly6C+ macrophage percent of total kidney cells” value (right kidney FACS, CD45+, CD11b+, F4/80+, Ly6C+, Ly6G−, week 8, FIG. 11) is “significantly decreased”. The “Ly6C+ monocyte percent of total kidney cells” value (right kidney FACS, CD45+, CD11b+, Ly6G−, Ly6C+, week 8, FIG. 10) is given as “significantly decreased”. For the same compound, the “myelocyte percent of total kidney cells” value (right kidney FACS, CD45+, CD11b+, week 8, FIG. 8) is “significantly decreased”. For the setting “urine total protein by chemstick (mg/dL), week 8, INS1007 0.1, 1, 10 mg/kg PO twice daily from week 2, FIG. 3”, the urinary protein concentration result was “decrease in urinary protein concentration (mg/dL) in a dose dependent manner”.
